Assay results: patent US7611721B1, “Adjuvant combination formulations” (priority 2000, dated 2009)
Values joined by “and” are separate entries in the source; they are usually repeats but may differ in a detail not shown here. Equal values may be shown once.

Key:
T1SP10MN(A) (+Cys) = experiment: Reciprocal anti-T1SP10MN(A) (+Cys) serum IgG and subclass endpoint titers, Balb/c mice; assay type: in vivo; details: n=3 Balb/c
Excerpt: The protocols of Experiment 2 were followed, except that the HIV peptide contained a cysteine at amino acid position 17, and the mice (n=3 Balb/c) were immunized subcutaneously on days 0 and 21, and bled for serological evaluation on days −1 (the day before first immunization), 13, 20 and 28. […] The HIV peptide T1SP10MN(A) (+Cys) (26) contains a cysteine at amino acid position 17 and is 40 residues long. T1SP10MN(A) (+Cys) was purchased from Genosys Biotechnologies (The Woodlands, Tex.).
Reciprocal anti-T1SP10MN(A) IgG endpoint titers were measured from individual mice and their geometric means (n=3 Balb/c) 28 days after initial immunization.
The protocols of Experiment 6 were followed, except that mice (n=3 Balb/c) were immunized subcutaneously on days 0 and 32, and bled for serological evaluation on day 38.
Reciprocal anti-T1SP10MN(A) (+Cys) IgG endpoint titers were measured from individual mice and their geometric means (n=3 Balb/c) 38 days after initial immunization.

[1] = tested on: P815 cells pulsed with HIVMN CTL epitope peptide; experiment: CTL analysis of spleen cells (chromium release); assay type: cell-based; details: separate experiments; Balb/c mice immunized with peptide
Experimental: FIG. 5 depicts the CTL activity of spleen cells isolated from mice seven days after secondary immunization. Spleen cells were harvested from groups of three Balb/c mice immunized on days 0 and 21 with 50 μg T1SP10MN(A) […] formulated with 50 μg MPL™ in 1% SE with or without 10 μg GM-CSF. Cells were cultured with the HIVMN CTL epitope peptide for seven days. IL-2 was added to the cultures for the last five days. Effector spleen cells were added to chromium-labelled P815 cells pulsed with HIVMN, another strain designated HIVIIIB or no peptide at the indicated ratios. Percent CTL activity was calculated as: […]
The protocols of Experiment 6 were followed regarding immunization of mice. The CTL activity of spleen cells isolated from mice seven days after secondary immunization was assessed. MPL™ SE was formulated with 50 μg MPL™ in 1% SE, with or without 10 μg GM-CSF, plus 50 μg T1SP10MN(A) (+Cys).
For CTL analysis, spleen cells were removed from immunized mice 14 days after primary, and seven days after secondary immunization. A protocol previously described (34) was essentially followed. […] Percent CTL activity was calculated as the percentage of chromium release using ((specific chromium release−spontaneous chromium release)/(maximal chromium release−spontaneous chromium release))×100. Chromium release was assessed after a six hour incubation period. […]

spleen cells = experiment: Spleen cell proliferation in response to RSV F protein; assay type: cell-based, Balb/c mice; details: Experiment 12; spleen cells 14 days post-secondary immunization; 2.5 μg/ml RSV F protein, 96 hours; normalized to ConA
Experimental: Spleen cells were harvested at 14 days post-secondary immunization and were established in culture at a density of 5×10^5 cells. Cells were cultured for a total of 96 hours. ^3H-thymidine was added to cultures for the last 18 hours. Data are presented as a proliferation index normalized to cells stimulated in culture with ConA ([mean cpm Antigen/mean cpm ConA]−[mean cpm medium/mean cpm ConA])×100. As a result, cells cultured in medium have a background proliferation of 0.

[2] = Experiment 6, immunized days 0 and 21, day 28
[3] = Experiment 7, immunized days 0 and 32, day 38

3-O-deacylated monophosphoryl lipid A [MPL ™]
Anti-HIV Peptide (+Cys) IgG1 GMT (T1SP10MN(A) (+Cys); [2]): 84,978
Anti-HIV Peptide (+Cys) IgG1 endpoint titer, individual mice (T1SP10MN(A) (+Cys); [2]): 23,249 and 155,199 and 170,071
Anti-HIV Peptide (+Cys) IgG2a GMT (T1SP10MN(A) (+Cys); [2]): 2,859
Anti-HIV Peptide (+Cys) IgG2a endpoint titer, individual mice (T1SP10MN(A) (+Cys); [2]): 500 and 1,628 and 28,722
Anti-HIV Peptide (+Cys) IgG2b GMT (T1SP10MN(A) (+Cys); [2]): 2,906
Anti-HIV Peptide (+Cys) IgG2b endpoint titer, individual mice (T1SP10MN(A) (+Cys); [2]): 500 and 1,102 and 44,531
Anti-HIV Peptide (+Cys) IgG GMT (T1SP10MN(A) (+Cys); [2]): 350,486
Anti-HIV Peptide (+Cys) IgG endpoint titer, individual mice (T1SP10MN(A) (+Cys); [2]): 91,728 and 529,663 and 886,156
Anti-HIV Peptide (+Cys) IgG1 GMT (T1SP10MN(A) (+Cys); [3]): 115,544
Anti-HIV Peptide (+Cys) IgG1 endpoint titer, individual mice (T1SP10MN(A) (+Cys); [3]): 148,818 and 90,380 and 114,686
Anti-HIV Peptide (+Cys) IgG2a GMT (T1SP10MN(A) (+Cys); [3]): 3,429
Anti-HIV Peptide (+Cys) IgG2a endpoint titer, individual mice (T1SP10MN(A) (+Cys); [3]): 11,874 and 1,674 and 2,028
Anti-HIV Peptide (+Cys) IgG2b GMT (T1SP10MN(A) (+Cys); [3]): 4,980
Anti-HIV Peptide (+Cys) IgG2b endpoint titer, individual mice (T1SP10MN(A) (+Cys); [3]): 9,685 and 3,605 and 3,538
Anti-HIV Peptide (+Cys) IgG GMT (T1SP10MN(A) (+Cys); [3]): 442,259
Anti-HIV Peptide (+Cys) IgG endpoint titer, individual mice (T1SP10MN(A) (+Cys); [3]): 404,755 and 446,952 and 478,163
Peptide-specific CTL responses [1]: < 30%
Normalized Proliferation Index (spleen cells): 0.4
